In US12605449B2, “Drug-clay mineral complex containing phospholipid and oral administration composition including same” (Korea Institute of Geoscience and Mineral Resources, priority 2020, dated 2026):
One block for each compound: values may come before it.

Legend:
Format in all cases: physicochemical
[1] = Camptothecin adsorption to bentonite (supernatant concentration); settings: camptothecin 0.25 mg/mL in 1 N HCl
Protocol: The concentration of camptothecin (Tokyo Chemical Industry, TCI) was made at 0.25 mg/mL using a 100% 1 N HCl solvent and the drug and bentonite reacted with each other at various ratios shown in Table 6 below, and then the drug amount adsorbed to bentonite was indirectly measured by measuring the drug concentration of the supernatant.

[2] = Carbamazepine drug release test according to pH; settings: regardless of pH
Description: In addition, a pattern released at a constant rate at all pHs was shown, and since the release rate of carbamazepine is higher at high pH, it may be inferred that the drug may be easily released from the lower digestive tract.

[3] = Ciprofloxacin adsorption to bentonite (pH and concentration dependence)
[4] = Ciprofloxacin release test using a dialysis membrane (FaSSGF, FaSSIF, FaSSCoF); settings: complex weight ratio 1:5
Description: The release pattern according to the pH of the complex was confirmed through a release test using a dialysis membrane.

Compound: CC[C@@]1(O)C(=O)OCc2c1cc1n(c2=O)Cc2cc3ccccc3nc2-1 [Camptothecin, (S)-4-ethyl-4-hydroxy-1H-pyrano-[3′,4′: 6,7]indolizinol[1,2-b]quinoline-3,14 (4H, 12H)-dione]
Supernatant concentration [1]: 49.7 ± 0.3 µg/mL

time within which most of the drug was released [2]: ≤ 2 h
Compound: NC(=O)N1c2ccccc2C=Cc2ccccc21 [Carbamazepine, 5H-dibenzo[b,f]azepine-5-carboxamide]

amount of drug adsorption per bentonite mass ([3]; bentonite 0.5 mg/mL, ciprofloxacin 50-500 μg/mL, pH 1): ≤ 300 mg/g
adsorption amount of ciprofloxacin according to pH ([3]; ciprofloxacin 0.5 mg/mL, bentonite 5 mg/mL, pH 1 to 10, decreased above pH 7): high adsorption
drug adsorption rate ([3]; weight ratio of ciprofloxacin and bentonite 1:5): ~100%
release pattern in FaSSGF, FaSSIF, FaSSCoF [4]: rapidly released under FaSSGF
Compound: O=C(O)c1cn(C2CC2)c2cc(N3CCNCC3)c(F)cc2c1=O [ciprofloxacin, 1-cyclopropyl-6-fluoro-1,4-dihydro-4-oxo-7-(1-piperazinyl)-quinoline-3-carboxylic acid]
